Results from patent US9896412B2, “Reagents and method for conjugating biological molecules” (POLYTHERICS LIMITED, priority 2008, dated 2018).

Experimental: A pH 7.4 D2O solution was made by first freeze-drying a 50 mM sodium phosphate aqueous solution containing 150 mM NaCl and 20 mM EDTA at pH 7.4 and reconstituting to the same volume with deuterium oxide. Acetone was added as a standard to the buffer at 1.0 μl per 3 ml. Samples of the PEG reagents were dissolved at 1 μmol in 0.75 ml of the buffer and analysed after 4 h and after 25.5 h by 400 MHz NMR spectroscopy. The stability of the PEG maleimide samples was determined by comparing the integral at 6.86 ppm after normalising using the integral for the acetone standard at 2.17 ppm.

With “α-methoxy-ω-ethyl-maleinimide polyethylene glycol [PEG maleimide sample 2]” the “% Degradation over 21.5 h at pH 7.4” value was 19%.
